Test results: patent publication US20100144729A1, “COUMARIN DERIVATIVES” (priority 2007, published 2010)

What was measured:
S1P-1 = target: T1, S1P-1 (Homo sapiens, UniProt P21453); assay: FLIPR calcium flux assay, S1P-1; assay type: cell-based; conditions: CHO cells expressing S1P receptor
T1 construct: expressed in transfected cells; host or cells: CHO cells under G418 selection
Method: (§1) Compounds of the invention are tested for agonist activity on S1P1, S1P3, S1P5, and […] with a FLIPR calcium flux assay. Briefly, CHO cells expressing an S1P receptor are maintained in F-12K medium (ATCC), containing 5% FBS, with 500 ug/ml of G418. Prior to the assay, the cells are plated in 384 black clear bottom plates at the density of 10,000 cells/well/25 ? l in the medium of F-12K containing 1% FBS. The second day, the cells are washed three times (25 μl/each) with washing buffer. About 25 μl of dye are added to each well and incubated for 1 hour at 37° C. and 5% CO2. The cells are then washed four times with washing buffer (25 μl/each). The calcium flux is assayed after adding 25 μl of SEW2871 (published by Rosen et al., used as reference) solution to each well of cells. The same assay is performed with cells expressing each of the different S1P receptors. Titration in the FLIPR calcium flux assay is recorded over a 3-minute interval, and quantitated as maximal peak height percentage response relative to S1P-1 activation. The compounds of the invention are active in this assay at a concentration of from 10^−12 and 3.10^−[…]. For example example 13 as an EC50 92 nm for S1P-1 and an EC50>1 um for all the other isoforms (S1P-2, S1P-3, S1P-4, S1P-5).

S1P-2 = target: T2, S1P-2 (Homo sapiens, UniProt O95136); assay: FLIPR calcium flux assay, S1P-2; assay type: cell-based; conditions: CHO cells expressing S1P receptor
T2 construct: expressed in transfected cells; host or cells: CHO cells under G418 selection
Method: as §1

S1P-3 = target: T3, S1P-3 (Homo sapiens, UniProt Q99500); assay: FLIPR calcium flux assay, S1P-3; assay type: cell-based; conditions: CHO cells expressing S1P receptor
T3 construct: expressed in transfected cells; host or cells: CHO cells under G418 selection
Method: as §1

S1P-4 = target: T4, S1P-4 (Homo sapiens, UniProt O95977); assay: FLIPR calcium flux assay, S1P-4; assay type: cell-based; conditions: CHO cells expressing S1P receptor
T4 construct: expressed in transfected cells; host or cells: CHO cells under G418 selection
T4 sequence (O95977 1-384): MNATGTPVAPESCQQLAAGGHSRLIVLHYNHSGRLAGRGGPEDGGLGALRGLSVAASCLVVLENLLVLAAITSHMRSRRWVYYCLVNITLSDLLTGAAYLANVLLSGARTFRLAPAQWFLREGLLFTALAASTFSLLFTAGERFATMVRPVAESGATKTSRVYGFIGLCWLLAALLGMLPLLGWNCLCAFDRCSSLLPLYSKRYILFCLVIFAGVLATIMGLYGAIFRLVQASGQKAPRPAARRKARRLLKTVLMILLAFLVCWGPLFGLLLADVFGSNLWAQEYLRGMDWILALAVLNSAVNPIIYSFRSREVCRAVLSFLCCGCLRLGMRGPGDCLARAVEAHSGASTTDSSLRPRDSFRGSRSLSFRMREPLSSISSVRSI
Method: as §1

S1P-5 = target: T5, S1P-5 (Homo sapiens, UniProt Q9H228); assay: FLIPR calcium flux assay, S1P-5; assay type: cell-based; conditions: CHO cells expressing S1P receptor
T5 construct: expressed in transfected cells; host or cells: CHO cells under G418 selection
Method: as §1

S1P1 (EDG-1) = target: T6, S1P1 (EDG-1) (Homo sapiens, UniProt P21453); assay: GPCR activation assay measuring GTP [γ-35S] binding to membranes from CHO cells expressing human EDG receptors (S1P1); assay type: biochemical; conditions: CHO cell membranes expressing human EDG-1, read-out: S1P-1 EC50
T6 construct: c-myc (N); expressed in transfected cells; homogenized membranes
Method: A.1 In Vitro: GPCR Activation Assay Measuring GTP [γ-^35S] Binding to Membranes Prepared From CHO Cells Expressing Human EDG Receptors
S1P1 (EDG-1) GTP [γ-^35S] binding assay: Homogenized membranes are prepared from CHO cell clones stably expressing a human EDG-1 N-terminal c-myc tag. Cells are grown in suspension in two 850 cm^2 roller bottles for three or fours days before harvesting. The cells are centrifuged down, washed once with cold PBS, and resuspended in ≦20 ml of Buffer A (20 mM HEPES, pH 7.4, 10 mM EDTA, EDTA-free complete protease inhibitor cocktail [1 tablet/25 ml]). The cell suspension is homogenized on ice, using a Polytron homogenizer at 30000 rpm at three intervals of 15 seconds each. The homogenate is first centrifuged at 2000 rpm on a tabletop low speed centrifuge for 10 minutes. The supernatant, after passing through a cell strainer, is then re-centrifuged at 50,000×g for 25 minutes at 4° C. The pellet is resuspended into buffer B (15% glycerol, 20 mM HEPES, pH 7.4, 0.1 mM EDTA, EDTA-free complete protease inhibitor cocktail [1 tablet/10 ml]). Protein concentration of the preparation is determined using the BCA Protein Assay kit (Pierce) using BSA as standard. The membranes are aliquoted and kept frozen at −80° C.
Solutions of test compounds ranging from 10 mM to 0.01 nM are prepared in DMSO. S1P is diluted in 4% BSA solution as positive controls. The desired amount of membrane preparation is diluted with ice-cold assay buffer (20 mM HEPES, pH 7.4, 100 mM NaCl, 10 mM MgCl2, 0.1% Fatty acid-free BSA, 5 μM GDP) and vortexed well. 2 μl or less of compound is distributed into each well of a round-bottom 96-well polystyrene assay plate, followed by addition of 100 μl of diluted membranes (3-10 μg/well) and kept on ice until the addition of hot GTPγS. [^35S]-GTPγS is diluted 1:1000 (v/v) with cold assay buffer and 100 μl is added into each well. The reaction is carried out at room temperature for 90 minutes before the membranes are harvested onto Perkin-Elmer Unifilter® GF/B-96 filter plate using a Packard Filtermate Harvester. After several washes with wash buffer (20 mM HEPES, pH 7.4, 100 mM NaCl, 10 mM MgCl2), and a rinse with 95% ethanol, the filter is dried in a 37° C. oven for 30 minutes. MicroScint-20 is added and the plate sealed for scintillation counting on TopCount. EC50 values are obtained by fitting the GTP [γ-^35S] binding curves (raw data) with the dose response curve-fitting tool of GraphPad Prism. Six or twelve different concentrations are used to generate a concentration response curve (using three data points per concentration).

T6 sequence (P21453 whole entry): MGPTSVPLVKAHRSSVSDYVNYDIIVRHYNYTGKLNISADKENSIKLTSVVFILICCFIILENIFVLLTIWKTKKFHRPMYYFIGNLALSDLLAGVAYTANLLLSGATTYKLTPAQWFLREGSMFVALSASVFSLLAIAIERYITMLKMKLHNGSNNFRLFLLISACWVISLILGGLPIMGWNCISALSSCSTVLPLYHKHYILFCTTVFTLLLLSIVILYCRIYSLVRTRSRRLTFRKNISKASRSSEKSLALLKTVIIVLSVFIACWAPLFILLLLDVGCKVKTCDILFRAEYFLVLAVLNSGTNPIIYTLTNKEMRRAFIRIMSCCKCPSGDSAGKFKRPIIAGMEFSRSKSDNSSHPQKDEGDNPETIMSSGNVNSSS
T3 sequence (Q99500 whole entry): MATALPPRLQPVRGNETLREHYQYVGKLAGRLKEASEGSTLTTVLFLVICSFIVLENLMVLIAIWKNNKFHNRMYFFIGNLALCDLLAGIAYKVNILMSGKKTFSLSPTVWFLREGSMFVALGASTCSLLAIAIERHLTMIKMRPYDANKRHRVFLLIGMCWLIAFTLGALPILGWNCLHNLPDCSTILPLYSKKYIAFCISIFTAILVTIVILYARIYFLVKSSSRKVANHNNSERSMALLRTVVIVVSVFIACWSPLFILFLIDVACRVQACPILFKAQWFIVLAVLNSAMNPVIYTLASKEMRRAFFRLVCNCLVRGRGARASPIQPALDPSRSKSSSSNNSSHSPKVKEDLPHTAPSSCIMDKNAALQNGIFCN
T2 sequence (O95136 whole entry): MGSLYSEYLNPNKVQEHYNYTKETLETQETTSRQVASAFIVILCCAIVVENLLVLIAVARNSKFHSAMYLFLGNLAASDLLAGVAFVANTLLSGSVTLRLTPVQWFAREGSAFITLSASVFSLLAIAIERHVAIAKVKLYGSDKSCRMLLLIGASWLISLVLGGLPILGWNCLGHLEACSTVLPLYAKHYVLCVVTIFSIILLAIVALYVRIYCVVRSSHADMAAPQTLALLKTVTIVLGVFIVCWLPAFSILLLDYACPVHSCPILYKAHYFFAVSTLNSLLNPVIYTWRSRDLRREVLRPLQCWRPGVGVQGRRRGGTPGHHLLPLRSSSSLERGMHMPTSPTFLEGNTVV
T5 sequence (Q9H228 whole entry): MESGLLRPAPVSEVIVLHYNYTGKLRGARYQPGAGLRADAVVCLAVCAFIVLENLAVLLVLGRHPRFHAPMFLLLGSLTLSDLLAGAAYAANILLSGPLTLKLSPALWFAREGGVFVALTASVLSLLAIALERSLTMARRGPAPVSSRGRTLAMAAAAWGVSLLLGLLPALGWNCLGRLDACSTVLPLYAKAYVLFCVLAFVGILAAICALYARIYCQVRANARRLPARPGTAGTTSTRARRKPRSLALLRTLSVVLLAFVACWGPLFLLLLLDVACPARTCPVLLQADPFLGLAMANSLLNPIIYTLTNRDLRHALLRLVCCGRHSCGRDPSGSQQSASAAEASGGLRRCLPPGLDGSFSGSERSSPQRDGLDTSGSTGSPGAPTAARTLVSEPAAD
T1 sequence (P21453 whole entry): as the sequence (P21453 whole entry) above

Compound | EC50 (S1P1 (EDG-1)) [nM] | further results
CCCc1c(OC)ccc2cc(C(=O)Nc3ccc(C4CCCN4C)cc3)c(=O)oc12 (racemic) [Example 13] |  | EC50 (S1P-1): 92 nM; EC50 (S1P-2): > 1000 nM; EC50 (S1P-3): > 1000 nM; EC50 (S1P-4): > 1000 nM; EC50 (S1P-5): > 1000 nM
CCCc1c(OC)ccc2cc(C(=O)Nc3ccc(C4CNCCN4)cc3)c(=O)oc12 (racemic) [Example 43] | 0.1 | 
COc1ccc2cc(C(=O)Nc3ccc(C4CCCCN4)cc3)c(=O)oc2c1OC(C)C (single isomer, unassigned) [Example 23] | 75.5 | 
COc1ccc2cc(C(=O)Nc3ccc(C4CNCCO4)cc3)c(=O)oc2c1OC(C)C (single isomer, unassigned) [Example 41] | 2.9 | 
CCc1c(OC)ccc2cc(C(=O)Nc3ccc(C4CNCCN4)cc3)c(=O)oc12 (single isomer, unassigned) [Example 44] | 0.2 | 
CCOc1c(OC)ccc2cc(C(=O)Nc3ccc(C4CNCCN4)cc3)c(=O)oc12 (single isomer, unassigned) [Example 53] | 4.6 | 
CCCc1c(OC)ccc2cc(C(=O)Nc3ccc(C4CCCN4)cc3)c(=O)oc12 (stereo not shown) [Example 1, 7-Methoxy-2-oxo-8-propyl-2H-chromene-3-carboxylic acid (4-pyrrolidin-2-yl-phenyl)-amide] | 0.1 | 
CCOc1c(OC)ccc2cc(C(=O)Nc3ccc([C@H]4CCCN4)cc3)c(=O)oc12 [Example 8] | 7.5 | 
CCCc1c(OC)ccc2cc(C(=O)Nc3ccc([C@H]4COCCN4)cc3)c(=O)oc12 [Example 27] | 0.2 | 
CCc1c(OC)ccc2cc(C(=O)Nc3ccc([C@H]4CCCN4)cc3C)c(=O)oc12 [Example 62] | 0.5 | 
COc1ccc2cc(C(=O)Nc3ccc([C@H]4CCCN4)c(F)c3)c(=O)oc2c1C [Example 72] | 1.8 | 
Cc1cc([C@H]2CCCN2)ccc1NC(=O)c1cc2ccc(OC(C)C)c(OC(C)C)c2oc1=O [Example 82] | 2.4 | 
CCOc1ccc2cc(C(=O)Nc3ccc([C@H]4CCCN4)cc3F)c(=O)oc2c1OCC [Example 89] | 12.8 | 
COc1ccc2cc(C(=O)Nc3ccc([C@H]4COCCN4)c(C)c3)c(=O)oc2c1OC(C)C [Example 90] | 6.2 | 
COc1ccc2cc(C(=O)Nc3cccc([C@H]4COCCN4)c3)c(=O)oc2c1OC(C)C [Example 96] | 2.8 | 
